Measured values taken from ChEMBL document CHEMBL3991601, “The target landscape of clinical kinase drugs” (Science, 2017).
Calls of active or inactive are those of the source.

Assays:
[1] = biological target: Atypical kinase COQ8A, mitochondrial (Homo sapiens, UniProt Q8NI60)
[2] = biological target: Adenylate kinase 2, mitochondrial (Homo sapiens, UniProt P54819)
[3] = biological target: Calcium/calmodulin-dependent protein kinase type II subunit gamma (Homo sapiens, UniProt Q13555)
[4] = biological target: Epithelial discoidin domain-containing receptor 1 (Homo sapiens, UniProt Q08345)
[5] = biological target: T1, Delta(24)-sterol reductase (Homo sapiens, UniProt Q15392)
T1 sequence (Q15392 whole entry): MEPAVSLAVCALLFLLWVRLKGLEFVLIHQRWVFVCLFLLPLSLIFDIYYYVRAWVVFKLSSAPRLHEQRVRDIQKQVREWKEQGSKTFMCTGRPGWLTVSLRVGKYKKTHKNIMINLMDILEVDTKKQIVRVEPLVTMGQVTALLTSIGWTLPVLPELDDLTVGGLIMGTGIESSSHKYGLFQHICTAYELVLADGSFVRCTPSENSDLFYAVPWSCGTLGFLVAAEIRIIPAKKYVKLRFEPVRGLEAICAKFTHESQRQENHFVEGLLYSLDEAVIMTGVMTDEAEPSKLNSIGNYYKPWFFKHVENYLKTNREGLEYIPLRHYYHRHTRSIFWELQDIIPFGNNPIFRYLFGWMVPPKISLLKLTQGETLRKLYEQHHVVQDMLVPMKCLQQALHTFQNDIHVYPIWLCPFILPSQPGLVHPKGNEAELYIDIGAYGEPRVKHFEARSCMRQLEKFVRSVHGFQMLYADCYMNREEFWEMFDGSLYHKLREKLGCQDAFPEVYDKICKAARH

[6] = biological target: Tyrosine-protein kinase FRK (Homo sapiens, UniProt P42685)
Chain of Tyrosine-protein kinase FRK (P42685 whole entry): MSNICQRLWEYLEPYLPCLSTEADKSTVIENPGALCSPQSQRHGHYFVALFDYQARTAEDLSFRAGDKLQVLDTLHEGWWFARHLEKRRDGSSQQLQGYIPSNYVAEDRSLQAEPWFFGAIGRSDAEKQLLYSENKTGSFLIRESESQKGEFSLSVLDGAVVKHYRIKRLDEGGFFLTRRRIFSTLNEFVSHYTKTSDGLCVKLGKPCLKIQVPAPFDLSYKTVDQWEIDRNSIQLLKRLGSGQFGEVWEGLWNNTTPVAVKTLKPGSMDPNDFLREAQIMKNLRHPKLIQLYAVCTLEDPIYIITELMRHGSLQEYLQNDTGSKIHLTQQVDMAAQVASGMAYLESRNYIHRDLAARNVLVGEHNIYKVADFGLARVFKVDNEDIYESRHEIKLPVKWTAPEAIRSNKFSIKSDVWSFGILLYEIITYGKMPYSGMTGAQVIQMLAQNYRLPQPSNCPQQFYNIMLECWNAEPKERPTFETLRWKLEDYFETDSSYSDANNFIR

[7] = biological target: T2, Mitogen-activated protein kinase kinase kinase kinase 3 (Homo sapiens, UniProt Q8IVH8)
T2 sequence (Q8IVH8 whole entry): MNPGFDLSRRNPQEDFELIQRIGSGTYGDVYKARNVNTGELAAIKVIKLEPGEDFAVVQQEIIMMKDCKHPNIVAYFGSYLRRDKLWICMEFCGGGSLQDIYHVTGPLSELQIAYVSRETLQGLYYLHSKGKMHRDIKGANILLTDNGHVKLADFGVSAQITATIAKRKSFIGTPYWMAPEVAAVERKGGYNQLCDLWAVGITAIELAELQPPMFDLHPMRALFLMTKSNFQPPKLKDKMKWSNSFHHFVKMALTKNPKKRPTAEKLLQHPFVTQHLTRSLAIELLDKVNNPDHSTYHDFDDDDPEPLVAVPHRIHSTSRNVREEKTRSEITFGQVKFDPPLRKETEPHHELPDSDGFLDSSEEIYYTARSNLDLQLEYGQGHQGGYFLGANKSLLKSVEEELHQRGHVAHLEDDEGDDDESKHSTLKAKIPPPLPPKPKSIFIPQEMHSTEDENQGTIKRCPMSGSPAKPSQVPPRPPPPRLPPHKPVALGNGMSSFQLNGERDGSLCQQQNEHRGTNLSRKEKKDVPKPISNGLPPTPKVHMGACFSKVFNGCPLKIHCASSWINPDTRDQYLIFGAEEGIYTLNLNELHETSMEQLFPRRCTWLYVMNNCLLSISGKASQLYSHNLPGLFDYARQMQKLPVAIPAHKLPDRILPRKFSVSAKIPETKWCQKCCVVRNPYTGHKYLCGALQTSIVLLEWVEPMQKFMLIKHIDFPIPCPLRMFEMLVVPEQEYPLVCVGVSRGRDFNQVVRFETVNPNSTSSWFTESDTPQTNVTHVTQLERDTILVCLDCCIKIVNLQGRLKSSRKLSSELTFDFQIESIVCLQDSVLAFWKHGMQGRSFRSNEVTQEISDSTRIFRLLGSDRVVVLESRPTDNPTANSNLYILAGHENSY

[8] = biological target: Mitogen-activated protein kinase kinase kinase kinase 5 (Homo sapiens, UniProt Q9Y4K4)
Chain of Mitogen-activated protein kinase kinase kinase kinase 5 (Q9Y4K4 whole entry): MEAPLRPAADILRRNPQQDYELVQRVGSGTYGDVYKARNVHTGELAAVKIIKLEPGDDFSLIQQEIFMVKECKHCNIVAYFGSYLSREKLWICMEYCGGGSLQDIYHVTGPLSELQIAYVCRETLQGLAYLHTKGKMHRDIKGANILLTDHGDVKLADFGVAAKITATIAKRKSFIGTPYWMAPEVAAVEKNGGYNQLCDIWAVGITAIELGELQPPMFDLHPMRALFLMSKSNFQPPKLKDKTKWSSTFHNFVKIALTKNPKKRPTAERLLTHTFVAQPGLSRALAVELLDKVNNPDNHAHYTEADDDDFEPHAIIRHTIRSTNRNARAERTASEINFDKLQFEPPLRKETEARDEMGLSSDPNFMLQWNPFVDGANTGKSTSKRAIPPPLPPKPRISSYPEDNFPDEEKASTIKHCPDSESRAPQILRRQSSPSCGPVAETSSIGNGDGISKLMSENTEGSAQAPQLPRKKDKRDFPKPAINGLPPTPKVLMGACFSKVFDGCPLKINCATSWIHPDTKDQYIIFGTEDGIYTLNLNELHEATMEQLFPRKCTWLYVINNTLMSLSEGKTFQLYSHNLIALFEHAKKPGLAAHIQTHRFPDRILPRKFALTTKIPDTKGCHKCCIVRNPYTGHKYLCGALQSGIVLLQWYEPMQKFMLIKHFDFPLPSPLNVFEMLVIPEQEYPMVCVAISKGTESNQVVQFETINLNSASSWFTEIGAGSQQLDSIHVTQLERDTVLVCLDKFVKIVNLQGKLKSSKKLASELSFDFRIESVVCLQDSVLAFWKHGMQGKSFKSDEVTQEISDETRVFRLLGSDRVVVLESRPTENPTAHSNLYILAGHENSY

[9] = biological target: Mitogen-activated protein kinase 10 (Homo sapiens, UniProt P53779)
Chain of Mitogen-activated protein kinase 10 (P53779 whole entry): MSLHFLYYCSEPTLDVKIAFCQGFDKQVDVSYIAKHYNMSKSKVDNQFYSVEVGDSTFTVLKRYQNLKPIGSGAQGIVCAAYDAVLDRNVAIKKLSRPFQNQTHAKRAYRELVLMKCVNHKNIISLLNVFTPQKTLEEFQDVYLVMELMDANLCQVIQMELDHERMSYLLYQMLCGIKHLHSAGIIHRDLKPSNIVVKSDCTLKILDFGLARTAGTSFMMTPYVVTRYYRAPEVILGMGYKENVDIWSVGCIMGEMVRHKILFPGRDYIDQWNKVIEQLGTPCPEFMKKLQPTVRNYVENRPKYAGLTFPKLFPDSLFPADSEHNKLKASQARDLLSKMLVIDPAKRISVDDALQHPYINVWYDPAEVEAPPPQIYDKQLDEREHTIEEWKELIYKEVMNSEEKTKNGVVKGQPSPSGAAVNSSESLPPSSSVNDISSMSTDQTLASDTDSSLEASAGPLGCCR

[10] = biological target: MAP kinase-activated protein kinase 2 (Homo sapiens, UniProt P49137)
Chain of MAP kinase-activated protein kinase 2 (P49137 whole entry): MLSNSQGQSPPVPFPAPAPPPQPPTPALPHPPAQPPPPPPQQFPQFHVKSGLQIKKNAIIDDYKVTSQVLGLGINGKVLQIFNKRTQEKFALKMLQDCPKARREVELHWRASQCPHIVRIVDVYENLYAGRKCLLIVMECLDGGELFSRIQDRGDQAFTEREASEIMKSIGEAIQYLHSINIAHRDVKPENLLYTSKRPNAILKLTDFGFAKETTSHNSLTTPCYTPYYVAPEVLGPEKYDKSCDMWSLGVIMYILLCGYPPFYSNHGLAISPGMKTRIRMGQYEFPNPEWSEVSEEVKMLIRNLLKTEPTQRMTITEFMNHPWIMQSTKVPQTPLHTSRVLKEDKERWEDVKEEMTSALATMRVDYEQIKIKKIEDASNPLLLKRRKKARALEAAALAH

[11] = biological target: T3, Bifunctional phosphoribosylaminoimidazole carboxylase/phosphoribosylaminoimidazole succinocarboxamide synthetase (Homo sapiens, UniProt P22234)
T3 sequence (P22234 whole entry): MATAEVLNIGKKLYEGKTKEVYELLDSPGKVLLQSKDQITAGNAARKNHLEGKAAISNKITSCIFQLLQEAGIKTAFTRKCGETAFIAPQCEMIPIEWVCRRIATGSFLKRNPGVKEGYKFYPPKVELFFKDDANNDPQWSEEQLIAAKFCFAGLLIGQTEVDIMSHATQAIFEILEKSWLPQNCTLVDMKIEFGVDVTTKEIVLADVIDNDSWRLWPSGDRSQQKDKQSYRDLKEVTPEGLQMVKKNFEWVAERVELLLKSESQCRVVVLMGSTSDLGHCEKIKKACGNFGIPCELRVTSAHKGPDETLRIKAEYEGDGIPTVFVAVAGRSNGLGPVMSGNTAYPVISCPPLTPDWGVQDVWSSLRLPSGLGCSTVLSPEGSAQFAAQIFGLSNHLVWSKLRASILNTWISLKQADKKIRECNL

[12] = biological target: Structural maintenance of chromosomes protein 2 (Homo sapiens, UniProt O95347)
Chain of Structural maintenance of chromosomes protein 2 (O95347 whole entry): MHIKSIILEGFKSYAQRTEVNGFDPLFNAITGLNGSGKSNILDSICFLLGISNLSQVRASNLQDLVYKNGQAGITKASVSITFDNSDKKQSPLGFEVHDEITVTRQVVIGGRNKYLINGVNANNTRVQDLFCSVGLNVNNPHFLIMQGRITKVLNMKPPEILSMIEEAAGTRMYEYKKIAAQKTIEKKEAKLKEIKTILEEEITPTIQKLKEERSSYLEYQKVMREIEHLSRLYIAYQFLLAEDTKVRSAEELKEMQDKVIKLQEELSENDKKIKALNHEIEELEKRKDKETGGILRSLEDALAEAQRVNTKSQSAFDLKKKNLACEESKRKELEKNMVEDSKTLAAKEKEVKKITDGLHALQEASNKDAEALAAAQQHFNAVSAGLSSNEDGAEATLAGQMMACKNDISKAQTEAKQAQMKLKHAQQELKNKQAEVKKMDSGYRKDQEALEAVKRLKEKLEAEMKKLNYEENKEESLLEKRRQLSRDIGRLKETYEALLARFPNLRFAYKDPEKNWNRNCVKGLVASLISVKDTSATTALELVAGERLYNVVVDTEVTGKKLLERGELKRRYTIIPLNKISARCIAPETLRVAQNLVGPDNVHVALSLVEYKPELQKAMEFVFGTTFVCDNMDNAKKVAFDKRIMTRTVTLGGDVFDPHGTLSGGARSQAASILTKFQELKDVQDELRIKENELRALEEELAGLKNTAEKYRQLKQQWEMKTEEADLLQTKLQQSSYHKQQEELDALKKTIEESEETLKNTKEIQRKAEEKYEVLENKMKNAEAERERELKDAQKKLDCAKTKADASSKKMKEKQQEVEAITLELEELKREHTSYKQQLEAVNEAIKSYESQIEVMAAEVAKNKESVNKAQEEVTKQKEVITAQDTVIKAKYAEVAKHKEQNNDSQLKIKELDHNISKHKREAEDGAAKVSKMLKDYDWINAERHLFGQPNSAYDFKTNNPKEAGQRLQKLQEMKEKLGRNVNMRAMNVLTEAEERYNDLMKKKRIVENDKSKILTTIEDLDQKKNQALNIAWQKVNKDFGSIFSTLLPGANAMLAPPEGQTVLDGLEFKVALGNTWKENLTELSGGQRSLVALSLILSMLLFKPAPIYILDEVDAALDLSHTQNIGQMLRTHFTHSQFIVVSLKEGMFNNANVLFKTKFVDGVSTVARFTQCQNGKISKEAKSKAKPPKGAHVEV

[13] = biological target: T4, Uncharacterized protein FLJ45252 (Homo sapiens, UniProt Q6ZSR9); conditions: read-out: Kd apparent; k-562, colo 205, sk-n-be(2) and mv-4-11
T4 sequence (Q6ZSR9 whole entry): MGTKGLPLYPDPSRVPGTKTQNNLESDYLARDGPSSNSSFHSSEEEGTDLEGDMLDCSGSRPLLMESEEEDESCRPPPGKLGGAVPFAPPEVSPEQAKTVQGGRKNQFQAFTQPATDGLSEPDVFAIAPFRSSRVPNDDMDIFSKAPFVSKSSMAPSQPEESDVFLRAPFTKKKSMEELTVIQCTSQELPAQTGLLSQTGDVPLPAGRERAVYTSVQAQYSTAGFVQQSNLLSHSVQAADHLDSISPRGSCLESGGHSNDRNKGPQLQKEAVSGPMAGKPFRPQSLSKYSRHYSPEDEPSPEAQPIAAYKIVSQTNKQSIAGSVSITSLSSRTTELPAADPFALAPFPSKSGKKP

[14] = biological target: Cyclin-dependent kinase 5 (Homo sapiens, UniProt Q00535)
Chain of Cyclin-dependent kinase 5 (Q00535 whole entry): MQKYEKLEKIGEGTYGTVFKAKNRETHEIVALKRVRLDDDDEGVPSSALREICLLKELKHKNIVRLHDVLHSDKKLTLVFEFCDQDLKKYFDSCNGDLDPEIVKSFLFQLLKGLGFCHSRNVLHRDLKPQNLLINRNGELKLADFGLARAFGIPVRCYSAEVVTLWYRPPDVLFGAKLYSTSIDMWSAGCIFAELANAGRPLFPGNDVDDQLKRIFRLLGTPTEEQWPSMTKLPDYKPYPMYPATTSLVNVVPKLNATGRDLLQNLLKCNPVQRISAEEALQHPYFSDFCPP
Note: in the data inactive means no Kd found up to 30 µM.

Chain of Atypical kinase COQ8A, mitochondrial (Q8NI60 whole entry): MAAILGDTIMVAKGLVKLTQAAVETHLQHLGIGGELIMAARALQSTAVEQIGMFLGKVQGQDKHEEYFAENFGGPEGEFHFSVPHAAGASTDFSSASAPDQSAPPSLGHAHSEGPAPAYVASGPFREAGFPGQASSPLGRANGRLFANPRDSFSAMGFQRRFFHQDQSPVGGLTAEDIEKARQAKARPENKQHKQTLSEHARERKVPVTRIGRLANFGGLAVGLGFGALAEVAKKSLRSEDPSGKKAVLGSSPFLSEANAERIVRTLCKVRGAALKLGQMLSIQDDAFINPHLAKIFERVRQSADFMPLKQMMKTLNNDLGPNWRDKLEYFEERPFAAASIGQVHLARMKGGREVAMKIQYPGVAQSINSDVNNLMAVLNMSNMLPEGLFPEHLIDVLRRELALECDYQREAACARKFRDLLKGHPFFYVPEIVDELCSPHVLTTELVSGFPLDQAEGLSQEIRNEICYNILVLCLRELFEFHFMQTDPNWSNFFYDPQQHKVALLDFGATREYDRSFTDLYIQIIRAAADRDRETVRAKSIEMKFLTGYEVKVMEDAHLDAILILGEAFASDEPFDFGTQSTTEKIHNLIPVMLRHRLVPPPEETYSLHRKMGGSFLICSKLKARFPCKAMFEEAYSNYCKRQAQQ
Chain of Calcium/calmodulin-dependent protein kinase type II subunit gamma (Q13555 whole entry, the tested form may be a part): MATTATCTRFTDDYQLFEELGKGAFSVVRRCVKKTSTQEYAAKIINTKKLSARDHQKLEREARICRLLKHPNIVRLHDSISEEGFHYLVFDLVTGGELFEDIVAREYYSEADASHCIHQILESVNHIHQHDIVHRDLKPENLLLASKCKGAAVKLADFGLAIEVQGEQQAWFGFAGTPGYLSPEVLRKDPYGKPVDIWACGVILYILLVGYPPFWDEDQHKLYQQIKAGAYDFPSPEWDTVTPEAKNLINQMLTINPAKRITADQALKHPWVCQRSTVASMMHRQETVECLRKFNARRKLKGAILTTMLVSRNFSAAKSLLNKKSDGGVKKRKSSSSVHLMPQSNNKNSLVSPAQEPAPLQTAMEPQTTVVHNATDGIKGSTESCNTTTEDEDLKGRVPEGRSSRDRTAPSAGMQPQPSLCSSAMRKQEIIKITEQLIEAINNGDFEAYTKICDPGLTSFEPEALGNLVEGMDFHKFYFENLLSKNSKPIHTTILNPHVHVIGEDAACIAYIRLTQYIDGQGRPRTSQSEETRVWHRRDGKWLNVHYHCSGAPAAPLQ

Compound	Kd [1]	Kd [2]	Kd [3]	Kd [4]	Kd [5]	Kd [6]	Kd [7]	Kd [8]	Kd [9]	Kd [10]	Kd [11]	Kd [12]	Kd [13]	Kd [14]
CCc1cnn2c(NCc3ccc[n+]([O-])c3)cc(N3CCCC[C@H]3CCO)nc12 [DINACICLIB]	> 30 µM (inactive)	> 30 µM (inactive)	> 30 µM (inactive)	> 30 µM (inactive)	> 30 µM (inactive)	> 30 µM (inactive)	> 30 µM (inactive)	> 30 µM (inactive)	> 30 µM (inactive)	> 30 µM (inactive)	> 30 µM (inactive)	> 30 µM (inactive)		
Cc1cn(-c2cc(NC(=O)c3ccc(C)c(Nc4nccc(-c5cccnc5)n4)c3)cc(C(F)(F)F)c2)cn1 [NILOTINIB]		> 30 µM (inactive)			> 30 µM (inactive)						> 30 µM (inactive)	> 30 µM (inactive)	> 30 µM (inactive)	
CN1N=C(N)c2cn([C@@H]3O[C@H](COP(=O)(O)O)[C@@H](O)[C@H]3O)c3ncnc1c23 [TRICIRIBINE PHOSPHATE]	> 30 µM (inactive)	> 30 µM (inactive)	> 30 µM (inactive)	> 30 µM (inactive)	> 30 µM (inactive)	> 30 µM (inactive)	> 30 µM (inactive)	> 30 µM (inactive)	> 30 µM (inactive)	> 30 µM (inactive)	> 30 µM (inactive)	> 30 µM (inactive)	> 30 µM (inactive)	> 30 µM (inactive)
Cc1cc(Nc2cc(N3CCN(C)CC3)nc(/C=C/c3ccccc3)n2)n[nH]1 [ENMD-2076]	> 30 µM (inactive)	> 30 µM (inactive)		0.755 µM (active)	> 30 µM (inactive)		> 30 µM (inactive)		> 30 µM (inactive)		> 30 µM (inactive)	> 30 µM (inactive)	> 30 µM (inactive)	
OCCn1cc(-c2cnc3nnn(Cc4ccc5ncccc5c4)c3n2)cn1 [PF-04217903]	> 30 µM (inactive)	> 30 µM (inactive)	> 30 µM (inactive)	> 30 µM (inactive)	> 30 µM (inactive)	> 30 µM (inactive)	> 30 µM (inactive)	> 30 µM (inactive)	> 30 µM (inactive)	> 30 µM (inactive)	> 30 µM (inactive)	> 30 µM (inactive)	> 30 µM (inactive)	
CN1CCC(CNc2ccc3ncc(-c4cccc(OC(F)(F)F)c4)n3n2)CC1 [SGI-1776]	> 30 µM (inactive)	> 30 µM (inactive)	> 30 µM (inactive)	> 30 µM (inactive)	> 30 µM (inactive)	> 30 µM (inactive)	> 30 µM (inactive)	> 30 µM (inactive)	> 30 µM (inactive)	> 30 µM (inactive)	> 30 µM (inactive)	> 30 µM (inactive)	> 30 µM (inactive)	> 30 µM (inactive)
O=C(Nc1cccc(Cl)c1)Nc1ncc(CCNc2ncnc3ccsc23)s1 [SNS-314]	> 30 µM (inactive)	> 30 µM (inactive)		0.14 µM (active)	> 30 µM (inactive)		> 30 µM (inactive)				> 30 µM (inactive)	> 30 µM (inactive)	> 30 µM (inactive)	
Cc1nc(N)sc1-c1ccnc(Nc2ccc(N3CCOCC3)cc2)n1 [CYC-116]	65.3 µM (active)	> 30 µM (inactive)		> 30 µM (inactive)	> 30 µM (inactive)				0.147 µM (active)		> 30 µM (inactive)	> 30 µM (inactive)	0.007 µM (active)	
CCn1c(-c2nonc2N)nc2c(C#CC(C)(C)O)ncc(OC[C@H]3CCCNC3)c21 [GSK-690693]		> 30 µM (inactive)			> 30 µM (inactive)						> 30 µM (inactive)	1.11 µM (active)	> 30 µM (inactive)	
CN1CCN(c2ccc3nc(-c4c(N)c5c(F)cccc5[nH]c4=O)[nH]c3c2)CC1 [DOVITINIB]		> 30 µM (inactive)			> 30 µM (inactive)						> 30 µM (inactive)	> 30 µM (inactive)	0.104 µM (active)	
Nc1nc(N)c2nc(-c3cccc(O)c3)c(-c3cccc(O)c3)nc2n1 [TG100-115]		> 30 µM (inactive)			> 30 µM (inactive)						> 30 µM (inactive)	> 30 µM (inactive)	3.01 µM (active)	
